Several values for one entry are separate records, joined by “and”; a condition that tells them apart may be missing. Equal values may be shown once.
Experiments:
[1] = Solubility of quercetin-3′-O-phosphate in water; type: physicochemical; conditions: about pH 8 (about 4 g in 50 mL)
Procedure: The resultant solid from concentration of the decantate is added acetonitrile (500 mL) followed by water (50 mL) then 1N hydrochloric acid (approx. 20 mL) until a pH of about 5 is achieved. The solution is concentrated to a volume of about 120 mL. The residue is purified with a 600 g, C-18 reverse phase column with 60 mL injections in a gradient. The gradient is 100% water (1 L), 9:1 water:MeOH (1 L), 8:2 water:MeOH (1 L), 7:3 water:MeOH (1 L), 1:1 water:MeOH. The desired product begins to elute after about 500 mL of 1:1 water:MeOH. The fractions are combined and concentrated. The residue is dissolved in water (40 mL) and solid potassium carbonate (approx. 3 g) is added until pH=8. The pH is adjusted to about 2 with 50% sulfuric acid resulting in the formation of a precipitate. The solid is collected, which contained approximately 10% TEA. The solid is suspended in water (50 mL), and the pH is adjusted to about 8 with solid potassium carbonate to produce a yellow solution. The resultant yellow solution is treated dropwise with 50% sulfuric acid until a pH of about 2 is reached, resulting in the precipitation of a solid. The solid is collected and slurried in water (75 mL). The solid is collected and dried giving 4 g, representing 12% of quercetin-3′-O-phosphate. […]

[2] = Stability of Quercetin-3′-O-phosphate in water; type: physicochemical; conditions: water at pH 8, 24 hours, ambient temperature
Procedure: Quercetin-3′-O-phosphate is dissolved in water at about pH 8.

rats = assay: Blood glucose levels in rats co-administered with quercetin-3′-O-phosphate and tacrolimus; type: in vivo, rat; conditions: for Blood glucose, Mean change from Prograf ® control / Blood glucose, Mean change from Day 1: Q-Phosphate 114 mg/kg + Prograf 0.5 mg/kg i.p.; for Blood glucose, Mean: Q-Phosphate 114 mg/kg i.p. Day 11 to Day 25 + Prograf 0.5 mg/kg i.p., 5 rats; for Blood glucose, individual rats: Q-Phosphate 114 mg/kg i.p. once daily Day 11 to Day 25 + Prograf 0.5 mg/kg i.p. Day 1 to Day 25
Procedure: One set of 5 rats is treated from day 1 to day 25 with inert vehicle 2 intraperitoneally and treated from day 11 to day 25 with inert vehicle 1 intraperitoneally. […] A third set 5 of rats is treated from day 1 to day 25 with tacrolimus (Prograf®) intraperitoneally at 0.5 mg/kg, and treated from day 11 to day 25 intraperitoneally with quercetin-3′-O-phosphate (Q-Phosphate) at 114 mg/kg. The blood glucose level in the rats is measured on days 1, 10, 15, 20, and 25.

[3] = tested on: ATPase, Na+/K+, Heart, Pig; assay: Secondary toxicity screen (MDS Pharma Services), enzyme assay; type: biochemical; conditions: 10 μM
Procedure: (§1) A secondary pharmacological screening of molecules of interest at a fixed concentration is often practiced in the pharmaceutical industry in order to evaluate the effect of the compound on secondary targets that could result in untoward toxicity in-vivo. These secondary screens are well known in the art and can be carried out by labs which specialize in these tests such as MDS-Panlabs and CEREP. A secondary toxicity screen is performed with Quercetin-3′-O-phosphate at a concentration of 10 μM against 122 targets in enzyme, radioligand binding, and cellular assays by MDS Pharma Services by methods well known in the art. Inhibition is found in only the following targets (percent inhibition at 10 μM in parentheses): ATPase, Na+/K+, Heart, Pig (65%), Nitric Oxide Synthase, Endothelial (eNOS) (72%), Protein Tyrosine Kinase, FGFR2 (94%), Protein Tyrosine Kinase, FGFR1(96%), Protein Tyrosine Kinase, Insulin Receptor (91%), Protein Tyrosine Kinase, (82%), Protein Tyrosine Kinase, ZA70 (ZAP-70) (74%), UDP Glucuronosyltransferase, UGT1A1 (52%), Adenosine A1 (50%), Adrenergic α2A (57%), Dopamine D47 (51%), Peripheral Benzodiazepine Receptor (PBR) (53%), Transporter, Monoamine rabbit (68%), Serotonin (5-Hydroxytryptamine) 5-HT1A (62%).

AdenosineA1 = target: T1, AdenosineA1 (Homo sapiens, UniProt P30542); assay: GTPγS functional assay; type: biochemical; conditions: 10 μM
T1 sequence (P30542 1-326): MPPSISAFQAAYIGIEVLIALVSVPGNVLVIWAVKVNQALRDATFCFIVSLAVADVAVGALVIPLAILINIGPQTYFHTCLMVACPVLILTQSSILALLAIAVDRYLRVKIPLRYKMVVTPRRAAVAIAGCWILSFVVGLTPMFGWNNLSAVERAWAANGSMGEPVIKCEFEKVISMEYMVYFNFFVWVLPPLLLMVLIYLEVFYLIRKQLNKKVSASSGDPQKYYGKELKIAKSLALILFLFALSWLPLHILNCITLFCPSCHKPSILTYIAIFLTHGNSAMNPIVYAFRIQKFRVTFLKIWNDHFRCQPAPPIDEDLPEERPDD
Procedure: (§2) The compound is additionally tested in AdenosineA1, AdrenergicA2A, DopamineD25, Histamine H1-, and μ-Opiate GTPγS functional assays using a concentration of 10 μM.

AdrenergicA2A = target: T2, AdrenergicA2A (Homo sapiens, UniProt P08913); assay: GTPγS functional assay; type: biochemical; conditions: 10 μM; potentially inverse agonist
T2 sequence (P08913 1-465): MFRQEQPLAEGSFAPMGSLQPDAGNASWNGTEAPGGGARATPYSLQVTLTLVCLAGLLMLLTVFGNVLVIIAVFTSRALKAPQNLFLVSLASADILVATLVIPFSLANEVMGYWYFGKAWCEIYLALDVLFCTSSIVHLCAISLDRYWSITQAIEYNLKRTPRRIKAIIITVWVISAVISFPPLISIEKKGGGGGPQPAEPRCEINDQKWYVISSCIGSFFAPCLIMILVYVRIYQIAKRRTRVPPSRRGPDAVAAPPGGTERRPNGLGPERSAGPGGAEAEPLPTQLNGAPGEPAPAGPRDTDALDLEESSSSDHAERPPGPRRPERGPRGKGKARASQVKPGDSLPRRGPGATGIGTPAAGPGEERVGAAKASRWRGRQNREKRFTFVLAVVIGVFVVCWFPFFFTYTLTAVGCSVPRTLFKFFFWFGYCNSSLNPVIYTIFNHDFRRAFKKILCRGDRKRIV
Procedure: as §2

[4] = Secondary toxicity screen, overall finding; conditions: 10 μM against 122 targets
Procedure: as §1

SMILES: O=c1c(O)c(-c2ccc(O)c(OP(=O)(O)O)c2)oc2cc(O)cc(O)c12 [Quercetin-3′-O-phosphate]
- solubility [1]: ≥ 80 mg/mL
- degradation seen by NMR [2]: no degradation
- Blood glucose, Mean change from Prograf ® control (rats; Day 1): +0.02 g/l
- Blood glucose, Mean (rats; Day 1): 1.29 g/L
- Blood glucose, individual rats (rats; Day 1): 1.18 g/L and 1.19 g/L and 1.41 g/L and 1.36 g/L and 1.30 g/L
- Blood glucose, Mean change from Day 1 (rats; Day 10): +0.65 g/l
- Blood glucose, Mean change from Prograf ® control (rats; Day 10): +0.45 g/l
- Blood glucose, Mean (rats; Day 10): 1.94 g/L
- Blood glucose, individual rats (rats; Day 10): 1.50 g/L and 2.41 g/L and 2.19 g/L and 1.51 g/L and 2.10 g/L
- Blood glucose, Mean change from Day 1 (rats; Day 15): +0.99 g/l
- Blood glucose, Mean change from Prograf ® control (rats; Day 15): -0.26 g/L
- Blood glucose, Mean (rats; Day 15): 2.28 g/L
- Blood glucose, individual rats (rats; Day 15): 2.07 g/L and 2.90 g/L and 3.16 g/L and 1.83 g/L and 1.42 g/L
- Blood glucose, Mean change from Day 1 (rats; Day 20): +1.55 g/l
- Blood glucose, Mean change from Prograf ® control (rats; Day 20): -0.09 g/L
- Blood glucose, Mean (rats; Day 20): 2.84 g/L
- Blood glucose, individual rats (rats; Day 20): 1.99 g/L and 3.28 g/L and 3.67 g/L and 3.58 g/L and 1.67 g/L
- Blood glucose, Mean change from Day 1 (rats; Day 25): +0.87 g/l
- Blood glucose, Mean change from Prograf ® control (rats; Day 25): -0.39 g/L
- Blood glucose, Mean (rats; Day 25): 2.16 g/L
- Blood glucose, individual rats (rats; Day 25): 2.34 g/L and 2.54 g/L and 2.04 g/L and 2.67 g/L and 1.23 g/L
- effect on tacrolimus induced hyperglycemia (rats; rats, Q-Phosphate 114 mg/kg i.p. with tacrolimus 0.5 mg/kg): can attenuate tacrolimus induced hyperglycemia
- percent inhibition [3]: 65%
- antagonist activity (AdenosineA1): 48%
- inhibition in GTPγS functional assay (AdrenergicA2A): marked negative inhibition
- toxicity properties (findings of the toxicology screen) [4]: low toxicity properties

Source: patent US7947733B2, “Phosphorylated pyrone analogs and methods” (Limerick BioPharma, priority 2007, dated 2011)
